Data as given in patent publication US20090004211A1, “METHOD FOR EFFECTING LOCALIZED, NON-SYSTEMIC AND SYSTEMIC, IMMUNOGENIC TREATMENT OF CANCER USING ERP57 TRANSLOCATION” (priority 2006, published 2009).
Entries after “also recorded” stand apart in the source; their conditions may differ. Non-standard residues stand in square brackets, D forms with d. Residues, ends and D or L forms follow the SMILES beside them. *: point of attachment. Nle = CCCC[C@H](N)C(=O)O; Cbz = O=C(OCc1ccccc1)*; CH2F = FC*

Columns and labels:
CT26 tumor cells = test: Anti-tumor vaccination: treated dying CT26 cells injected s.c., challenge with live tumor cells in opposite flank; type: in vivo, BALB/c mice
ERP57 [1] = test: Fluorescence detection of cell surface ERP57 (cytofluorometry); type: cell-based, mouse; conditions: for time after treatment at which ERP57 exposure is detectable: intact cells; for ERP57 exposure at cell surface: CT26 cells, agent alone; for ERP57 exposure of cells treated with etoposide plus inhibitor: in combination with etoposide
Experimental: CT26 cells (on a glass slide or in 12-well plates) were first washed with FACS buffer (1×PBS, 5% fetus bovine serum, and 0.1% sodium azide) and then incubated with rabbit anti-mouse CRT antibody (1:100, Stressgen), or rabbit anti-mouse ERP57 antibody (abcam) in FACS buffer at 4° C. for 30 min. Cells reacted with anti-rabbit IgG (H+L) Alexa fluor 488-conjugates (1:500) in FACS buffer at 4° C. for 30 min. After washing three times with FACS buffer, surface CRT and ERP57 was detected by cytofluorometric analysis on a FACS Vantage. In some experiments, cells were fixed with 4% paraformaldehyde, counterstained with Hoechst (2 μM; Sigma), followed by fluorescence microscopic assessment.

CRT = test: Fluorescence detection of cell surface CRT (cytofluorometry); conditions: for time after treatment at which CRT exposure is detectable: intact cells; for CRT exposure at cell surface: CT26 cells, agent alone; for CRT exposure of cells treated with etoposide plus inhibitor: in combination with etoposide
Experimental: CT26 cells (on a glass slide or in 12-well plates) were first washed with FACS buffer (1×PBS, 5% fetus bovine serum, and 0.1% sodium azide) and then incubated with rabbit anti-mouse CRT antibody (1:100, Stressgen), or rabbit anti-mouse ERP57 antibody (abcam) in FACS buffer at 4° C. for 30 min. […] After washing three times with FACS buffer, surface CRT and ERP57 was detected by cytofluorometric analysis on a FACS Vantage. In some experiments, cells were fixed with 4% paraformaldehyde, counterstained with Hoechst (2 μM; Sigma), followed by fluorescence microscopic assessment.
Trypsinized CT26 cells were enucleated as described. Briefly, cells were treated in 2 ml of complete RPMI medium containing cytochalasin B (10 μg/ml; Sigma) and DNase I (80 U/ml; Sigma). […] Gradients containing cell suspensions were centrifugated in a prewarmed SW41 Beckman rotor at 25 000 rpm for 20 minutes at 30° C. […] Then the cell surface CRT was detected (see materials and methods) and the viability was determined by with propidium iodine staining (2 μg/ml, Sigma) for 5 min followed by cytofluorometric analysis.

CT26 tumors = test: Treatment of established CT26 tumors by single intratumoral injection; type: in vivo, BALB/c mice
Experimental: All animals were maintained in specific pathogen-free conditions and all experiments followed the FELASA guidelines. 3×10^6 treated CT26 cells were inoculated s.c. in […] of PBS into BALB/c six-week-old female mice, into the lower flank, while 5×10^5 untreated control cells were inoculated into the contralateral flank. For the tumorigenicity assay, 3×10^6 treated or untreated CT26 cells were injected s.c. into nu/nu mice. To assess the specificity of the immune response against CT26, injections of either 5×10^5 or 5×10^6 of CT26 were made (for the mice immunized in a standard protocol or vaccination protocol, respectively). Tumors were evaluated weekly, using a caliper. In a series of experiments, BALB/c (wild type or nu/nu) carrying palpable CT26 tumors (implanted 14 days before for wild type or 7 days before for nu/nu mice by injection of […] tumor cells) received a single intratumoral injection of […] PBS containing the same concentration of anti-cancer agents and PP1/GADD34 inhibitors as those used in vitro, as well as rCRT ([…]). For the assessment of local immune response, 3×10^5 cells were injected in 50 μl into the footpad of mice. Five days later, mice were sacrificed and the draining lymph nodes were harvested. 1×10^5 lymph node cells were cultured for 4 days alone or with 1×10^4 CT26 cells killed by a freeze-thaw cycle in 200 μl in round-bottom 96-well plates. IFN-γ was determined by ELISA.

ERP57 [2] = test: Fluorescence detection of cell surface ERP57 (cytofluorometry); type: cell-based, mouse; conditions: murine MCA205, B16F10, J558; human HeLa, A549, HCT116
[3] = CT26 cells treated in vitro with agent alone, immunocompetent BALB/c mice
[4] = agent alone, immunocompetent BALB/c mice, 14-day-old CT26 tumors
[5] = agent alone, immunodeficient nu/nu mice
[6] = pre-incubation for 1 h with the inhibitor
[7] = immunodeficient (athymic) animals

## CCCC[C@@H](C=O)NC(=O)[C@H](CC(C)C)NC(=O)[C@H](CC(C)C)NC(C)=O [ALLN] (Ac-Leu-Leu-[Nle]-aldehyde)
CT26 tumor cells; [3]
  immunogenicity of cell death (protection against tumor growth on rechallenge): failed to induce immunogenic apoptosis

## CCCCCCCCCCCCC/C=C/[C@@H](O)[C@H](CO)NC(C)=O [C2 ceramide]
CT26 tumor cells; [3]
  immunogenicity of cell death (protection against tumor growth on rechallenge): failed to induce immunogenic apoptosis

## CCCCCCCCCCCCC/C=C/[C@@H](O)[C@H](CO)NC(=O)CCCCCCCCCCCCCCC [C16-ceramide]
ERP57 [1]
  time after treatment at which ERP57 exposure is detectable: 1 h
CRT
  time after treatment at which CRT exposure is detectable: 1 h

## CCOc1ccc(-c2nc3ccc(-c4nc5ccc(N6CCN(C)CC6)cc5[nH]4)cc3[nH]2)cc1 [Hoechst 33342]
CT26 tumor cells; [3]
  immunogenicity of cell death (protection against tumor growth on rechallenge): failed to induce immunogenic apoptosis

## CC(C)C[C@@H](C=O)NC(=O)[C@H](CC(C)C)NC(=O)[C@H](CC(C)C)NC(=O)OCc1ccccc1 [MG132] (Cbz-Leu-Leu-Leu-aldehyde)
CT26 tumor cells; [3]
  immunogenicity of cell death (protection against tumor growth on rechallenge): failed to induce immunogenic apoptosis

## COC(=O)C[C@H](NC(=O)[C@H](C)NC(=O)[C@@H](NC(=O)OCc1ccccc1)C(C)C)C(=O)CF [Z-VAD-fmk] (Cbz-Val-Ala-Asp(OMe)-CH2F)
CT26 tumor cells; combined with doxorubicin
  effect on immunogenicity of doxorubicin-elicited cell death: reduces the immunogenicity of doxorubicin-elicited cell death

## C[C@H]1CCC/C=C/[C@@H]2C[C@H](O)C[C@H]2[C@H](O)/C=C/C(=O)O1 [brefeldin]
CT26 tumor cells; [3]
  immunogenicity of cell death (protection against tumor growth on rechallenge): failed to induce immunogenic apoptosis

## CC[C@@]1(O)C(=O)OCc2c1cc1n(c2=O)Cc2cc3ccccc3nc2-1 [camptothecin]
CT26 tumor cells; [3]
  immunogenicity of cell death (protection against tumor growth on rechallenge): failed to induce immunogenic apoptosis

## COc1cc([C@@H]2c3cc4c(cc3[C@@H](O[C@@H]3O[C@@H]5CO[C@@H](C)O[C@H]5[C@H](O)[C@H]3O)[C@H]3COC(=O)[C@H]23)OCO4)cc(OC)c1O [etoposide]
CT26 tumor cells; [3]
  immunogenicity of cell death (protection against tumor growth on rechallenge): failed to induce immunogenic apoptosis; also recorded: poorly immunogenic
CT26 tumors; [4]
  therapeutic effect of single intratumoral injection: no major therapeutic effect
CT26 tumors; [5]
  therapeutic effect of single intratumoral injection: no major therapeutic effect

## CC(=O)[C@]1(O)Cc2c(O)c3c(c(O)c2[C@@H](O[C@H]2C[C@H](N)[C@H](O)[C@H](C)O2)C1)C(=O)c1ccccc1C3=O [idarubicin]
CT26 tumor cells; [3]
  immunogenicity of cell death (protection against tumor growth on rechallenge): elicited immunogenic cell death
CRT
  time after treatment at which CRT exposure is detectable: 1 h

## C/C1=C/C(=O)O[C@@H]2C[C@@H](CC[C@H](C)/C=C\C=C\CC1)O[C@@](O)([C@@H]1CSC(=O)N1)C2 [latrunculin A]
ERP57 [1]; [6]
  effect on ERP57 exposure induced by anthracyclines and PP1/GADD34 inhibitors: abolished
CRT; [6]
  effect on CRT exposure induced by anthracyclines and PP1/GADD34 inhibitors: abolished

## CC(=O)N[C@@H](CSC(=O)[C@]1([C@@H](O)C(C)C)NC(=O)[C@H](C)[C@@H]1O)C(=O)O [loctacystin]
CT26 tumor cells; [3]
  immunogenicity of cell death (protection against tumor growth on rechallenge): failed to induce immunogenic apoptosis

## CO[C@@]12[C@H](COC(N)=O)C3=C(C(=O)C(C)=C(N)C3=O)N1C[C@@H]1N[C@@H]12 [mitomycin C]
CT26 tumor cells; [3]
  immunogenicity of cell death (protection against tumor growth on rechallenge): failed to induce immunogenic apoptosis
CT26 tumors; mouse, in vivo
  therapeutic effect of single intratumoral injection: no major therapeutic effect

## O=C1[O][Pt]2([NH][C@@H]3CCCC[C@H]3[NH]2)[O]C1=O [oxaliplatin]
ERP57 [1]
  time after treatment at which ERP57 exposure is detectable: 1 h
CRT
  time after treatment at which CRT exposure is detectable: 1 h

## CC(=O)O[C@H]1C(=O)[C@@]2(C)[C@H]([C@H](OC(=O)c3ccccc3)[C@]3(O)C[C@H](OC(=O)[C@H](O)[C@@H](NC(=O)c4ccccc4)c4ccccc4)C(C)=C1C3(C)C)[C@]1(OC(C)=O)CO[C@@H]1C[C@@H]2O [paclitaxel]
ERP57 [1]
  time after treatment at which ERP57 exposure is detectable: 1 h
CRT
  time after treatment at which CRT exposure is detectable: 1 h

## O=C(/C=C/c1ccccc1)NC(NC(=S)Nc1cccc2cccnc12)C(Cl)(Cl)Cl (centres unmarked) [salubrinal]
CT26 tumor cells; [3]
  immunogenicity of cell death (protection against tumor growth on rechallenge): not sufficient to induce immunogenic cell death
CT26 tumor cells; inhibitor combined with etoposide or mitomycin C
  immunogenic potential of cells succumbing to etoposide or mitomycin C: greatly enhanced
ERP57 [1]
  ERP57 exposure at cell surface: efficiently induced
  ERP57 exposure of cells treated with etoposide plus inhibitor: greatly enhanced
CT26 tumors; [4]
  therapeutic effect of single intratumoral injection: no major therapeutic effect
CT26 tumors; [5]
  therapeutic effect of single intratumoral injection: no major therapeutic effect
CT26 tumors; immunocompetent animals
  therapeutic effect of intratumoral injection combined with etoposide or mitomycin C: stable disease or complete tumor regression
CT26 tumors; [7]
  therapeutic effect of intratumoral injection combined with etoposide or mitomycin C: not in athymic
ERP57 [2]
  ERP57 exposure on panel of tumor cell lines: induced
CRT
  CRT exposure at cell surface: efficiently induced
  CRT exposure of cells treated with etoposide plus inhibitor: greatly enhanced
CRT; murine MCA205, B16F10, J558, human HeLa, A549, HCT116
  CRT exposure on panel of tumor cell lines: induced

## CO[C@H]([C@H](O)CC(=O)[C@@H](C)[C@@H](O)CC[C@@H](C)[C@@H]1O[C@]2(CC[C@@H](C)[C@H](CC[C@H](C)C(C)=O)O2)CC[C@@H]1C)[C@H](OC(=O)C[C@@H](O)C1=C(C)C(=O)OC1=O)C(C)C [tautomycin]
CT26 tumor cells; [3]
  immunogenicity of cell death (protection against tumor growth on rechallenge): not sufficient to induce immunogenic cell death
CT26 tumor cells; mouse, in vivo
  immunogenic potential of cells succumbing to etoposide or mitomycin C: greatly enhanced
ERP57 [1]
  ERP57 exposure at cell surface: efficiently induced
  ERP57 exposure of cells treated with etoposide plus inhibitor: greatly enhanced
CT26 tumors; [4]
  therapeutic effect of single intratumoral injection: no major therapeutic effect
CT26 tumors; [5]
  therapeutic effect of single intratumoral injection: no major therapeutic effect
CT26 tumors; immunocompetent animals
  therapeutic effect of intratumoral injection combined with etoposide or mitomycin C: stable disease or complete tumor regression
CT26 tumors; [7]
  therapeutic effect of intratumoral injection combined with etoposide or mitomycin C: not in athymic
CRT
  CRT exposure at cell surface: efficiently induced
  CRT exposure of cells treated with etoposide plus inhibitor: greatly enhanced

## CC(=O)O[C@@]12CO[C@@H]1C[C@H](O)[C@@]1(C)C(=O)[C@H](O)C3=C(C)[C@@H](OC(=O)[C@H](O)[C@@H](NC(=O)OC(C)(C)C)c4ccccc4)C[C@@](O)([C@@H](OC(=O)c4ccccc4)[C@H]21)C3(C)C [taxotere, Docetaxel]
ERP57 [1]
  time after treatment at which ERP57 exposure is detectable: 1 h
CRT
  time after treatment at which CRT exposure is detectable: 1 h

## C/C=C(/C)C(=O)O[C@H]1C(C)=C2[C@H]([C@@H]1OC(=O)CCCCCCC)[C@@](C)(OC(C)=O)C[C@H](OC(=O)CCC)[C@@]1(O)[C@H]2OC(=O)[C@@]1(C)O [thapsigargin]
CT26 tumor cells; [3]
  immunogenicity of cell death (protection against tumor growth on rechallenge): failed to induce immunogenic apoptosis

## arsenite
CT26 tumor cells; mouse, in vivo
  immunogenicity of cell death (protection against tumor growth on rechallenge): failed to induce immunogenic apoptosis

## tunicamycin
CT26 tumor cells; [3]
  immunogenicity of cell death (protection against tumor growth on rechallenge): failed to induce immunogenic apoptosis
